Assay results: patent publication US7459581B2, “Anti-bacterial compounds” (Givaudan S.A., priority 2004, dated 2008)
Converted amounts (≈) assume the structure as drawn. Read-outs that look alike come from different tables or passages of the source.

Legend:
Corynebacterium Ax 7 [1] = assay: Bacteriostatic activity (MIC), microtiter turbidity; type: cell-based, Corynebacterium group G; settings: read-out: MIC Corynebacterium Ax 7
Source text: (§1) The different axilla bacteria are isolated from the human axilla according to techniques known in the art, in particular according to standard microbiological practice. They are taxonomically identified by cell morphology, gram-reaction and biochemical tests included in the Api coryne test kit (BioMerieux, France). Strain Staphylococcus epidermidis Ax25 is identified by fatty acid methyl ester analysis (FAME; German type strain collection DSMZ, Germany).
(§2) The strains are maintained on Tryptic soy broth plates, this standard medium being supplemented with 5 g per litre of Polyoxyethylene Sorbitan Monooleate (Tween™ 80). Plates are incubated at 36° C. for a period 48 hours. The bacteria are then swabbed from the plates and suspended in 4 ml of Müller-Hinton broth supplemented with 100 mg of Tween™ 80 per litre (MH-Tween™) and incubated again at 36° C. for 16 hours. Following incubation, the bacterial suspensions are diluted in MH-Tween™ to obtain a final cell density of 10^7 colony forming units per ml. These diluted suspensions of the different test organisms are distributed to different columns of a microtiter plate, 100 μl per well. The test compounds are dissolved in dimethylsulfoxide (DMSO) at various test concentrations and 2.5 μl of these different DMSO solutions are added to the different wells of the test plates. The plates are covered with plastic films and incubated for 24 h at 36° C. with shaking at 250 rpm. The turbidity developing in the microtiter plates is then examined after 24 h to determine microbial growth.

[2] = system: Staphylococcus aureus DSM 799; assay: as above; type: cell-based; settings: read-out: MIC Staphylococcus aureus DSM 799
Source text: as §1, §2

S. epidermidis Ax 25 [3] = assay: as above; type: cell-based; settings: Staphylococcus epidermidis, read-out: MIC S. epidermidis Ax 25
Source text: as §1, §2

Escherichia coli DSM 682 [4] = assay: as above; type: cell-based; settings: read-out: MIC Escherichia coli DSM 682
Source text: as §1, §2

C. xerosis DSM 20170 [5] = assay: as above; type: cell-based; settings: Corynebacterium xerosis, read-out: MIC C. xerosis DSM 20170
Source text: as §1, §2

Corynebacterium Ax 15 [6] = assay: as above; type: cell-based, Corynebacterium jeikeium; settings: read-out: MIC Corynebacterium Ax 15
Source text: as §1, §2

Candida albicans = assay: Antifungal (fungistatic) activity, MIC; type: cell-based; settings: growth inhibition by at least 80%, 48 h, Saboureaud liquid medium, 10^5 cfu per ml
Description: as §2, with “growth. The minimal concentration of test compounds inhibiting the growth of an organism by at least 80% is determined as the minimal inhibitory concentration (MIC).” for “growth.”
(§3) The fungistatic effects of the compounds of the present invention are tested against the standard strains Candida albicans and Aspergillus niger. The strains are maintained on Potato dextrose agar plates. Plates are incubated at 30° C. for a period of 72 hours. The fungal inoculum is then swabbed from the plates and suspended in Saboureaud liquid medium and incubated again at 30° C. for 24 hours in the case of C. albicans. For A. niger the inoculum containing the fungal spores is directly harvested from the agar plates and suspended in distilled water. The inoculum is then diluted in Saboureaud liquid medium to obtain a final cell density of 10^5 colony forming units per ml. The test for fungistatic activity using differently concentrated DMSO stock solutions in microtiter plates is then conducted as described in example 10 for the bacteriostatic activity. The turbidity developing in the microtiter plates is then examined after 48 h to determine fungal growth. The minimal concentration of test compounds inhibiting the growth of an organism by at least 80% is determined as the minimal inhibitory concentration (MIC).

Aspergillus niger = assay: Antifungal (fungistatic) activity, MIC; type: cell-based; settings: growth inhibition by at least 80%, 48 h, Saboureaud liquid medium, 10^5 cfu per ml
Description: as §2, with “growth. The minimal concentration of test compounds inhibiting the growth of an organism by at least 80% is determined as the minimal inhibitory concentration (MIC).” for “growth.”
as §3

[7] = system: Staphylococcus aureus DSM 799; assay: Bactericidal activity (MBC), 60 min contact; type: cell-based; settings: complete kill of inoculum after 60 min incubation; regrowth read after 24 h at 36° C.
Source text: as §1, with “Germany). Escherichia coli DSM 682, Staphylococcus aureus DSM 799, and Corynebacterium xerosis DSM 20170 are obtained from the German-type strain collection.” for “Germany).”
as §2, with “growth. The minimal concentration of test compounds inhibiting the growth of an organism by at least 80% is determined as the minimal inhibitory concentration (MIC).” for “growth.”
(§4) The bactericidal effects of the compounds of the present invention are further tested. The bacteria are grown, harvested and diluted under the same conditions as described in example 10 above and added to microtiter plates (100 μl per well), each well containing 2.5 μl of the different DMSO solutions as described above. After 60 min incubation, 0.5 μl of the bacterial culture from each well (corresponding to 5×10^3 cfu in the control treatment) is transferred to a fresh microtiter plate which contained 100 μl per well of fresh medium. The plates are covered with plastic films and incubated for 24 h at 36° C. with shaking at 250 rpm. The turbidity developing in the microtiter plates is then examined after 24 h to determine microbial growth. The minimal concentration of test compounds which completely killed the bacterial inoculum is determined as the minimal bactericidal concentration (MBC).

Escherichia coli DSM 682 [8] = assay: Bactericidal activity (MBC), 60 min contact; type: cell-based; settings: complete kill of inoculum after 60 min incubation; regrowth read after 24 h at 36° C.
Source text: as §1, with “Germany). Escherichia coli DSM 682, Staphylococcus aureus DSM 799, and Corynebacterium xerosis DSM 20170 are obtained from the German-type strain collection.” for “Germany).”
as §2, with “growth. The minimal concentration of test compounds inhibiting the growth of an organism by at least 80% is determined as the minimal inhibitory concentration (MIC).” for “growth.”
as §4

Corynebacterium Ax 15 [9] = assay: Bactericidal activity (MBC), 60 min contact; type: cell-based, Corynebacterium jeikeium; settings: complete kill of inoculum after 60 min incubation; regrowth read after 24 h at 36° C.
Source text: as §1, with “Germany). Escherichia coli DSM 682, Staphylococcus aureus DSM 799, and Corynebacterium xerosis DSM 20170 are obtained from the German-type strain collection.” for “Germany).”
as §2, with “growth. The minimal concentration of test compounds inhibiting the growth of an organism by at least 80% is determined as the minimal inhibitory concentration (MIC).” for “growth.”
as §4

C. xerosis DSM 20170 [10] = assay: Bactericidal activity (MBC), 60 min contact; type: cell-based, Corynebacterium xerosis; settings: complete kill of inoculum after 60 min incubation; regrowth read after 24 h at 36° C.
Source text: as §1, with “Germany). Escherichia coli DSM 682, Staphylococcus aureus DSM 799, and Corynebacterium xerosis DSM 20170 are obtained from the German-type strain collection.” for “Germany).”
as §2, with “growth. The minimal concentration of test compounds inhibiting the growth of an organism by at least 80% is determined as the minimal inhibitory concentration (MIC).” for “growth.”
as §4

S. epidermidis Ax 25 [11] = assay: Bactericidal activity (MBC), 60 min contact; type: cell-based, Staphylococcus epidermidis; settings: complete kill of inoculum after 60 min incubation; regrowth read after 24 h at 36° C.
Source text: as §1, with “Germany). Escherichia coli DSM 682, Staphylococcus aureus DSM 799, and Corynebacterium xerosis DSM 20170 are obtained from the German-type strain collection.” for “Germany).”
as §2, with “growth. The minimal concentration of test compounds inhibiting the growth of an organism by at least 80% is determined as the minimal inhibitory concentration (MIC).” for “growth.”
as §4

Corynebacterium Ax 7 [12] = assay: Bactericidal activity (MBC), 60 min contact; type: cell-based, Corynebacterium group G; settings: complete kill of inoculum after 60 min incubation; regrowth read after 24 h at 36° C.
Source text: as §1, with “Germany). Escherichia coli DSM 682, Staphylococcus aureus DSM 799, and Corynebacterium xerosis DSM 20170 are obtained from the German-type strain collection.” for “Germany).”
as §2, with “growth. The minimal concentration of test compounds inhibiting the growth of an organism by at least 80% is determined as the minimal inhibitory concentration (MIC).” for “growth.”
as §4

[13] = AX7, growth inhibition by at least 80%, 24 h at 36° C., MH-Tween, 10^7 cfu per ml
[14] = DSM799, growth inhibition by at least 80%, 24 h at 36° C., MH-Tween, 10^7 cfu per ml
[15] = AX25, growth inhibition by at least 80%, 24 h at 36° C., MH-Tween, 10^7 cfu per ml
[16] = DSM682, growth inhibition by at least 80%, 24 h at 36° C., MH-Tween, 10^7 cfu per ml
[17] = DSM20170, growth inhibition by at least 80%, 24 h at 36° C., MH-Tween, 10^7 cfu per ml
[18] = AX15, growth inhibition by at least 80%, 24 h at 36° C., MH-Tween, 10^7 cfu per ml

Row | Compound | MIC (Corynebacterium Ax 7 [1]; AX7, 24 h) | MIC ([2]; DSM799, 24 h) | MIC (S. epidermidis Ax 25 [3]; AX25, 24 h) | MIC (Escherichia coli DSM 682 [4]; DSM682, 24 h) | MIC (C. xerosis DSM 20170 [5]; DSM20170, 24 h) | MIC (Corynebacterium Ax 15 [6]; AX15, 24 h) | MIC C. albicans (Candida albicans) | MIC A. niger (Aspergillus niger) | MBC Staphylococcus aureus DSM 799 [7] | MBC Escherichia coli DSM 682 (Escherichia coli DSM 682 [8]) | MBC Corynebacterium Ax 15 (Corynebacterium Ax 15 [9]) | MBC C. xerosis DSM 20170 (C. xerosis DSM 20170 [10]) | MBC S. epidermidis Ax 25 (S. epidermidis Ax 25 [11]) | MBC Corynebacterium Ax 7 (Corynebacterium Ax 7 [12]) | MIC (Corynebacterium Ax 7 [1]; [13]) | MIC [2, 14] | MIC (S. epidermidis Ax 25 [3]; [15]) | MIC (Escherichia coli DSM 682 [4]; [16]) | MIC (C. xerosis DSM 20170 [5]; [17]) | MIC (Corynebacterium Ax 15 [6]; [18])
1 | CCCCCCCCCCCC(=O)OCC(O)CO (stereo not drawn) [Compound C1, Dodecanoic acid 2,3-dihydroxy-propyl ester, reference compound] | 160 µg/mL (≈ 583 µM) | 80 µg/mL (≈ 292 µM) | < 80 µg/mL | > 5000 µg/mL | 320 µg/mL (≈ 1170 µM) | 1250 µg/mL (≈ 4560 µM) |  |  |  |  |  |  |  |  |  |  |  |  |  | 
2 | CCCCCCC(CCCC)COC(=O)CN (stereo not drawn) [Compound 5., 2-Butyl-octyloxycarbonylmethyl-ammonium chloride] | 10 µg/mL | 80 µg/mL | 20 µg/mL | 20 µg/mL | 20 µg/mL | 10 µg/mL | 0.0078 % (weight/volume) | 0.0039 % (weight/volume) | 0.004 % (weight/volume) | 0.004 % (weight/volume) | 0.002 % (weight/volume) | 0.004 % (weight/volume) | 0.004 % (weight/volume) | 0.002 % (weight/volume) |  |  |  |  |  | 
3 | CCCCC(CC)COC(=O)CO (stereo not drawn) [Compound 1., Hydroxy-acetic acid 2-ethyl-hexyl ester] |  |  |  |  |  |  | 0.0625 % (weight/volume) | 0.125 % (weight/volume) |  |  | 0.125 % (weight/volume) | 0.125 % (weight/volume) | 0.25 % (weight/volume) | 0.125 % (weight/volume) | 1250 µg/mL (≈ 6640 µM) | 2500 µg/mL (≈ 13300 µM) | 1250 µg/mL (≈ 6640 µM) | 1250 µg/mL (≈ 6640 µM) | 1250 µg/mL (≈ 6640 µM) | 1250 µg/mL (≈ 6640 µM)
4 | CCCCCCC(CCCC)COC(=O)CO (stereo not drawn) [Compound 2., Hydroxy-acetic acid 2-butyl-octyl ester] |  |  |  |  |  |  |  |  |  |  | >0.25 % (weight/volume) | >0.25 % (weight/volume) | >0.25 % (weight/volume) | >0.25 % (weight/volume) | 80 µg/mL (≈ 327 µM) | 310 µg/mL (≈ 1270 µM) | 80 µg/mL (≈ 327 µM) | > 2500 µg/mL | 80 µg/mL (≈ 327 µM) | 40 µg/mL (≈ 164 µM)
5 | Oc1cc(Cl)ccc1Oc1ccc(Cl)cc1Cl [Compound C4, Triclosan, reference compound] | 30 µg/mL (≈ 104 µM) | 5 µg/mL (≈ 17.3 µM) | 0.15 µg/mL (≈ 0.518 µM) | 5 µg/mL (≈ 17.3 µM) | 15 µg/mL (≈ 51.8 µM) | 30 µg/mL (≈ 104 µM) |  |  |  |  |  |  |  |  |  |  |  |  |  | 
6 | CCCCC(CC)COC(=O)CN (stereo not drawn) [Compound 4., 2-Ethyl-hexyloxycarbonylmethyl-ammonium chloride] | 310 µg/mL | 630 µg/mL | 630 µg/mL | 630 µg/mL | 310 µg/mL | 310 µg/mL |  |  | 0.25 % (weight/volume) | 0.125 % (weight/volume) | 0.25 % (weight/volume) | >0.25 % (weight/volume) | 0.25 % (weight/volume) | 0.25 % (weight/volume) |  |  |  |  |  | 
7 | CCCCCCCCC(CCCCCC)COC(=O)CO (stereo not drawn) [Compound 3., Hydroxy-acetic 2-hexyl-decyl ester] |  |  |  |  |  |  |  |  | >0.25 % (weight/volume) | >0.25 % (weight/volume) | >0.25 % (weight/volume) | >0.25 % (weight/volume) | >0.25 % (weight/volume) | >0.25 % (weight/volume) | 2500 µg/mL (≈ 8320 µM) | > 2500 µg/mL | ≤ 19 µg/mL | > 2500 µg/mL | > 2500 µg/mL | 39 µg/mL (≈ 130 µM)
